The values that follow come from paper PMC11563871, “The human ATAD5 has evolved unique structural elements to function exclusively as a PCNA unloader” (Nature Structural & Molecular Biology, 2024).

Assay [1] relates to T1, ATAD5-RFC.
T1 construct: N-terminally truncated ATAD5 (812-end of 1844), N-terminal 3xFLAG and C-terminal 6xHis, heteropentamer with RFC2-RFC5, insect cells (Sf9/Hi5)
Description: malachite green phosphate ATPase assay. The class given is biochemical, Homo sapiens. To be noted: 1 mM ATP, 0.25 μM ATAD5-RFC, 2 mM MgCl2, pH 7.6, room temperature; alone or with PCNA and/or DNA.

Assay [2] deals with T2, human ATAD5-RFC–PCNA complex.
T2 construct: N-terminally truncated ATAD5 (812-end of 1844), N-terminal 3xFLAG and C-terminal 6xHis, with RFC2-RFC5, insect cells (Sf9/Hi5); PCNA homotrimer from E. coli, His tag cut by thrombin; with Proliferating cell nuclear antigen
The assay is described as follows: cryo-EM structure. The class given is binding. As to conditions: 0.5 mM ATPγS, Mg2+; bound at ATAD5, RFC2, RFC5 and (states 1 and 2) RFC4.

T2 sequence (Q96QE3 812-1844): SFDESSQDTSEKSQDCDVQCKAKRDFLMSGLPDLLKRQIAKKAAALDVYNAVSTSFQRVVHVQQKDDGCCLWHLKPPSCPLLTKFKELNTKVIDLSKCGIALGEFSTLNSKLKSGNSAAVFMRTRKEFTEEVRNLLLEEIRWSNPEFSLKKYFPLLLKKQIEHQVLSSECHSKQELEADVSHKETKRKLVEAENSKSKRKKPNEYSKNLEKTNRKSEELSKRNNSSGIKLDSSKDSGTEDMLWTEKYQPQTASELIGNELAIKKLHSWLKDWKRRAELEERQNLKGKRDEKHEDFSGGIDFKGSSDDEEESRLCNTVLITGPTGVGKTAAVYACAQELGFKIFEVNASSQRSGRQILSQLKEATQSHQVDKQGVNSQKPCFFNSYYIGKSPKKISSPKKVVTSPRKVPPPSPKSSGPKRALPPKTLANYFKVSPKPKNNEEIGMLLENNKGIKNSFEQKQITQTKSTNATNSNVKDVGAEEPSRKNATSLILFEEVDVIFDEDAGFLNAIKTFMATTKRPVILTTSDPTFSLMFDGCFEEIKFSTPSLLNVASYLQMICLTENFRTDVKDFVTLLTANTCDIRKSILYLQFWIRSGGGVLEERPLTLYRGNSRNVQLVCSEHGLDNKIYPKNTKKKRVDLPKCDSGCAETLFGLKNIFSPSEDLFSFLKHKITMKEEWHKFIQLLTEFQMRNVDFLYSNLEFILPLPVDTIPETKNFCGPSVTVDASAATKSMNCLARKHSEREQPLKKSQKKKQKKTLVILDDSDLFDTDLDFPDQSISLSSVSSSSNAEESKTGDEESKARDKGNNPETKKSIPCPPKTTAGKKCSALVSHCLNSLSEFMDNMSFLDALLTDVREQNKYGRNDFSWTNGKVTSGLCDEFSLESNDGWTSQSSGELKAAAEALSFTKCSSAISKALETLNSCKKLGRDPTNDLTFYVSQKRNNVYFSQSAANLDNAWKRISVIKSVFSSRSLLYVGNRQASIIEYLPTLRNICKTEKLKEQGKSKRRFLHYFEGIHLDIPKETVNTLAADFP
T2 sequence (P35250 whole entry, further chain, the tested form may be a part): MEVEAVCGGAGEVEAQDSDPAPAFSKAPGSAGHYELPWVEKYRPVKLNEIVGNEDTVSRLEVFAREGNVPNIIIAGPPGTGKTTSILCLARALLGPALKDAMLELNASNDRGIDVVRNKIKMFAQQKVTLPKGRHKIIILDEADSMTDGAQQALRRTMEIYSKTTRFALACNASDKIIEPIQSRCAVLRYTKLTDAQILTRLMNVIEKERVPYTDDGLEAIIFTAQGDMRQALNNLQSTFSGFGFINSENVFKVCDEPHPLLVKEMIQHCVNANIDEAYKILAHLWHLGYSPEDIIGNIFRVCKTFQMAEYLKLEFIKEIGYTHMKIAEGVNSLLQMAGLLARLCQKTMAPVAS
T2 sequence (P40938 whole entry, further chain, the tested form may be a part): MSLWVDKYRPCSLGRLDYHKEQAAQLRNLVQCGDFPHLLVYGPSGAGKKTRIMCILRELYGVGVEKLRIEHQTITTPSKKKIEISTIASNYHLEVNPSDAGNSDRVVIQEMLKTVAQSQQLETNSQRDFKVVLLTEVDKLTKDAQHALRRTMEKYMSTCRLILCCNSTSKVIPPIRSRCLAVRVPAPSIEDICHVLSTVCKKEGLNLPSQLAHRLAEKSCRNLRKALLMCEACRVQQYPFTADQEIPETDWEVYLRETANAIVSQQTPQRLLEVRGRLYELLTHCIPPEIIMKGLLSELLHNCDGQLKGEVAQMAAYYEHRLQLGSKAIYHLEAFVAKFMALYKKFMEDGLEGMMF
T2 sequence (P35249 whole entry, further chain, the tested form may be a part): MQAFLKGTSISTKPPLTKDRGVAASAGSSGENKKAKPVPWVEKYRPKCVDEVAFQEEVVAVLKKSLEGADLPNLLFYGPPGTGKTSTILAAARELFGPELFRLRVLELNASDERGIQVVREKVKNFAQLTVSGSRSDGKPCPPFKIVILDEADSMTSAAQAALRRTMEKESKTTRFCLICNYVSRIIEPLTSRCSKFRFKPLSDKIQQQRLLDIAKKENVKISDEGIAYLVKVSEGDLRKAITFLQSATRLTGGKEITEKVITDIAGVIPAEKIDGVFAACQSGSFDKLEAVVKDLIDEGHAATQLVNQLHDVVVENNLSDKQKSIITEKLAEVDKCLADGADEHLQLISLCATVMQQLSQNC
T2 sequence (P40937 whole entry, further chain, the tested form may be a part): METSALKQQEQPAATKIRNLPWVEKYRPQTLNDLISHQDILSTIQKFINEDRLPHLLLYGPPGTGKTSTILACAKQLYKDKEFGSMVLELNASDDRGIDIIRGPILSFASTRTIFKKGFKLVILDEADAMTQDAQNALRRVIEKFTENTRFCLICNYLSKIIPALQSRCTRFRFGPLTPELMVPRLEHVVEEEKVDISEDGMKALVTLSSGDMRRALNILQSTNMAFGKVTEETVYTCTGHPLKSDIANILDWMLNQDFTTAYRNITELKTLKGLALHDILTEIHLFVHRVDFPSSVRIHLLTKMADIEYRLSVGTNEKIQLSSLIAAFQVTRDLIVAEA
T2 sequence (P12004 whole entry partner, the tested form may be a part): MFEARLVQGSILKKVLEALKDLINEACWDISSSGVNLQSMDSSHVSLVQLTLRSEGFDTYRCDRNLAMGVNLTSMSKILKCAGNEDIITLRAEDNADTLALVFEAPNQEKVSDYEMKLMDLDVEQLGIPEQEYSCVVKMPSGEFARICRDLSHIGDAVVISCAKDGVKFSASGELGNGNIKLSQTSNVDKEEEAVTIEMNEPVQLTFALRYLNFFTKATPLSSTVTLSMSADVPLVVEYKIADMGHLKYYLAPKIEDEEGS
T1 sequence (Q96QE3 812-1844): as the sequence (Q96QE3 812-1844) above
T1 sequence (P35250 whole entry, further chain, the tested form may be a part): as the sequence (P35250 whole entry, further chain, the tested form may be a part) above
T1 sequence (P40938 whole entry, further chain, the tested form may be a part): as the sequence (P40938 whole entry, further chain, the tested form may be a part) above
T1 sequence (P35249 whole entry, further chain, the tested form may be a part): as the sequence (P35249 whole entry, further chain, the tested form may be a part) above
T1 sequence (P40937 whole entry, further chain, the tested form may be a part): as the sequence (P40937 whole entry, further chain, the tested form may be a part) above

With `Nc1ncnc2c1ncn2[C@@H]1O[C@H](COP(=O)(O)OP(=O)(O)OP(=O)(O)O)[C@@H](O)[C@H]1O` [ATP], in assay [1], the ATP hydrolyzed/min entry was “ATP hydrolyzed/min by ATAD5-RFC alone or with PCNA and/or DNA”.

For the compound `Nc1ncnc2c1ncn2[C@@H]1O[C@H](COP(=O)(O)OP(=O)(O)OP(O)(O)=S)[C@@H](O)[C@H]1O` [ATPγS], the cryo-EM structure entry in assay [2] is “four subunits (ATAD5, RFC2, RFC5 and RFC4, that is, subunits A–D) each bound an ATPγS”.
